Structures can show the parent of a compound that is named as a salt. Where two headings read alike, the source gives them in different places. Blank lines part the entries; values can stand above or below the molecule they belong to.
How the values were obtained:
[1] = Dynamic vapor sorption (DVS) water uptake; format: physicochemical; details: 25° C.; for maximum water uptake: at 95% relative humidity
Experimental: Dynamic vapor sorption (“DVS”) measurements were obtained with a Projekt Messtechnik SPS11-100n water vapor sorption analyzer. The samples were placed into aluminum crucibles on a microbalance, and allowed to equilibrate at 25° C. and 50% relative humidity before initiating the following pre-defined humidity program at 25° C.: 50-95-0-50% relative humidity, and scanning with a 5% change in relative humidity per hour and with iso-humid equilibration periods at extreme values.

[2] = Relative solid-state stability (Applicants' observations); format: physicochemical
[3] = Thermogravimetry coupled to FTIR (TG-FTIR); format: physicochemical
Experimental: Measurements of thermogravimetry coupled to Fourier transform infrared spectroscopy (“TG-FTIR”) were obtained using a Netzsch Thermo-Microbalance TG 209 with a Bruker Vector 22 FT-IR Spectrometer using an aluminum crucible (with micro-hole or open), N2 atmosphere, heating rate of 10° C./min, and temperature range of 25-250° C.

Thermogravimetry (TG) = format: physicochemical
Experimental: Thermogravimetry (“TG”) measurements were obtained with a Perkin Elmer TGS 2 thermogravimetric analyzer using an aluminum crucible (open), N2 atmosphere, heating rate of 10° C./min, and temperature range of 25-500° C.

[4] = Desolvation / stability on drying under vacuum
Experimental: In one experiment, the S2 crystalline solvate was prepared by dissolving the Form II polymorph of 20,23-dipiperidinyl-5-O-mycaminosyl-tylonolide (245.7 mg) in tert-butyl methyl ether (0.5 ml), and slowly evaporating a portion of the solvent at ambient temperature. After no crystals formed, additional tert-butyl methyl ether was added, followed by seeding S2 solvate crystals from the first batch. The solvent was then allowed to evaporate completely. […] In further testing, the crystals were vacuum-dried at ambient temperature for 20 hours, and then dried again under vacuum for 24 hours at about 70° C.

Solubility in tBME = format: physicochemical

Structure (SMILES): CC[C@H]1OC(=O)C[C@@H](O)[C@H](C)[C@@H](OC2OC(C)C(O)C(N(C)C)C2O)[C@@H](CCN2CCCCC2)C[C@@H](C)C(=O)/C=C/C(C)=C/[C@@H]1CN1CCCCC1 (stereo in doubt) [Form I polymorph]
maximum water uptake [1]: less than 1 % (by weight)
stability relative to other solid-state forms [2]: greater stability at ambient temperature than the other above-listed solid-state forms
weight loss ([3]; temperature range of from 60 to 180° C., attributed to water loss): 0.6%

Structure (SMILES): CC[C@H]1OC(=O)C[C@@H](O)[C@H](C)[C@@H](OC2OC(C)C(O)C(N(C)C)C2O)[C@@H](CCN2CCCCC2)C[C@@H](C)C(=O)/C=C/C(C)=C/[C@@H]1CN1CCCCC1 (stereo in doubt) [Form II polymorph]
maximum water uptake [1]: about 2 % (by weight)
temperature at which decomposition began [3]: greater than 220 °C
weight loss ([3]; mainly in the temperature range of from 50 to 100° C., attributed to water loss): 0.7%

Structure (SMILES): CC[C@H]1OC(=O)C[C@@H](O)[C@H](C)[C@@H](OC2OC(C)C(O)C(N(C)C)C2O)[C@@H](CCN2CCCCC2)C[C@@H](C)C(=O)/C=C/C(C)=C/[C@@H]1CN1CCCCC1 (stereo in doubt) [Form III polymorph]
water uptake ([1]; between 70 and 85% relative humidity): about 6%
temperature at which decomposition began (Thermogravimetry (TG)): greater than 270 °C
weight loss (Thermogravimetry (TG); up to 200° C.): less than 0.05%
weight loss ([3]; up to 220° C., most between 50 and 120° C.): 1.7%

Structure (SMILES): CC[C@H]1OC(=O)C[C@@H](O)[C@H](C)[C@@H](OC2OC(C)C(O)C(N(C)C)C2O)[C@@H](CCN2CCCCC2)C[C@@H](C)C(=O)/C=C/C(C)=C/[C@@H]1CN1CCCCC1 (stereo in doubt) [THF S3 crystalline solvate]
weight loss due to liberation of solvent ([3]; at temperatures greater than 100° C.): about 8.1%

Structure (SMILES): CC[C@H]1OC(=O)C[C@@H](O)[C@H](C)[C@@H](OC2OC(C)C(O)C(N(C)C)C2O)[C@@H](CCN2CCCCC2)C[C@@H](C)C(=O)/C=C/C(C)=C/[C@@H]1CN1CCCCC1 (stereo in doubt) [diethyl ketone S1 crystalline solvate]
weight loss due to liberation of solvent [3]: 10%

Continued, in another order:

weight loss due to liberation of solvent ([3]; up to 200° C.): approximately 6.6%
Structure (SMILES): CC[C@H]1OC(=O)C[C@@H](O)[C@H](C)[C@@H](OC2OC(C)C(O)C(N(C)C)C2O)[C@@H](CCN2CCCCC2)C[C@@H](C)C(=O)/C=C/C(C)=C/[C@@H]1CN1CCCCC1 (stereo in doubt) [ethanol S1 crystalline solvate]

weight loss due to liberation of solvent [3]: approximately 4.1%
Structure (SMILES): CC[C@H]1OC(=O)C[C@@H](O)[C@H](C)[C@@H](OC2OC(C)C(O)C(N(C)C)C2O)[C@@H](CCN2CCCCC2)C[C@@H](C)C(=O)/C=C/C(C)=C/[C@@H]1CN1CCCCC1 (stereo in doubt) [ethyl acetate S1 crystalline solvate]
result of vacuum drying ([4]; ambient temperature): readily converted into the Form III polymorph

temperature at which desolvation was nearly completed [3]: ~130 °C
weight loss due to liberation of solvent [3]: about 7.7%
Structure (SMILES): CC[C@H]1OC(=O)C[C@@H](O)[C@H](C)[C@@H](OC2OC(C)C(O)C(N(C)C)C2O)[C@@H](CCN2CCCCC2)C[C@@H](C)C(=O)/C=C/C(C)=C/[C@@H]1CN1CCCCC1 (stereo in doubt) [ethyl formate crystalline solvate]

solubility (Solubility in tBME; organic solvent or mixture): 40 to 50 mg/mL
solubility in tBME relative to the Form II polymorph (Solubility in tBME; solvent tBME): at least one order of magnitude less
weight loss due to liberation of solvent [3]: 8.7-10%
Structure (SMILES): CC[C@H]1OC(=O)C[C@@H](O)[C@H](C)[C@@H](OC2OC(C)C(O)C(N(C)C)C2O)[C@@H](CCN2CCCCC2)C[C@@H](C)C(=O)/C=C/C(C)=C/[C@@H]1CN1CCCCC1 (stereo in doubt) [tBME S2 crystalline solvate]

temperature at which desolvation was nearly completed [3]: ~160 °C
weight loss due to liberation of solvent [3]: about 8.4%
Structure (SMILES): CC[C@H]1OC(=O)C[C@@H](O)[C@H](C)[C@@H](OC2OC(C)C(O)C(N(C)C)C2O)[C@@H](CCN2CCCCC2)C[C@@H](C)C(=O)/C=C/C(C)=C/[C@@H]1CN1CCCCC1 (stereo partly shown) [methyl acetate crystalline solvate]

stability ([4]; 60° C. at 1 mbar (absolute) for 1 day): exhibits stability
result of drying under vacuum ([4]; ambient temperature and 70° C.): no loss of solvent was observed
Structure (SMILES): CC[C@H]1OC(=O)C[C@@H](O)[C@H](C)[C@@H](OC2OC(C)C(O)C(N(C)C)C2O)[C@@H](CCN2CCCCC2)C[C@@H](C)C(=O)/C=C/C(C)=C/[C@@H]1CN1CCCCC1 (stereo partly shown) [tBME S2 crystalline solvate]
stability relative to other solid-state forms ([2]; listed as tBME crystalline solvate): more stable than the ethyl acetate S1 crystalline solvate
